Test results published in article PMC5218480 (PLoS ONE, 2017).

Tested on: MV-4-11 cells
Test: Gene expression microarray analysis (Affymetrix PrimeView) and GSEA
Type: cell-based, human
Parameters: RFU PODN (11730768_x_at) / Fold change /veh PODN (11730768_x_at) / RFU LINC00158 (11744669_a_at) / Fold change /veh LINC00158 (11744669_a_at) / RFU DUSP10 (11751237_a_at) / Fold change /veh DUSP10 (11751237_a_at) / RFU ID3 (11757404_x_at) / Fold change /veh ID3 (11757404_x_at) / RFU PLEKHG5 (11737974_s_at) / Fold change /veh PLEKHG5 (11737974_s_at) / RFU LRRC4B (11730491_at) / Fold change /veh LRRC4B (11730491_at) / RFU GIMAP4 (11747438_a_at) / Fold change /veh GIMAP4 (11747438_a_at) / RFU KRT8 (11758183_x_at) / Fold change /veh KRT8 (11758183_x_at) / RFU CNN1 (11734310_a_at) / Fold change /veh CNN1 (11734310_a_at) / RFU VPS37D (11726825_at) / Fold change /veh VPS37D (11726825_at) / RFU C10orf10 (11716522_x_at) / Fold change /veh C10orf10 (11716522_x_at) / RFU KIR2DL2 /// KIR2DL4 /// KIR2DL5A /// KIR2DL5B /// KIR2DS1 /// KIR2DS2 /// KIR2DS3 /// KIR2DS4 /// KIR3DL3 /// KIR3DL3 /// KIR3DS1 (11738374_at) / Fold change /veh KIR2DL2 /// KIR2DL4 /// KIR2DL5A /// KIR2DL5B /// KIR2DS1 /// KIR2DS2 /// KIR2DS3 /// KIR2DS4 /// KIR3DL3 /// KIR3DL3 /// KIR3DS1 (11738374_at) / RFU C1QL1 (11718748_at) / Fold change /veh C1QL1 (11718748_at) / RFU TMPRSS4 (11747572_a_at) / Fold change /veh TMPRSS4 (11747572_a_at) / RFU HAMP (11756126_x_at) / Fold change /veh HAMP (11756126_x_at) / RFU RNFT2 (11725882_a_at) / Fold change /veh RNFT2 (11725882_a_at) / RFU NR4A2 (11747474_a_at) / Fold change /veh NR4A2 (11747474_a_at) / RFU ABCC12 (11746883_a_at) / Fold change /veh ABCC12 (11746883_a_at) / RFU TMEM136 (11760407_x_at) / Fold change /veh TMEM136 (11760407_x_at) / RFU CLDN22 /// WWC2 (11732394_at) / Fold change /veh CLDN22 /// WWC2 (11732394_at) / RFU HLA-DPB1 (11760878_x_at) / Fold change /veh HLA-DPB1 (11760878_x_at) / RFU SPINT1 (11716480_a_at) / Fold change /veh SPINT1 (11716480_a_at) / RFU GAP43 (11754022_s_at) / Fold change /veh GAP43 (11754022_s_at) / RFU A4GNT (11735810_at) / Fold change /veh A4GNT (11735810_at) / RFU PRB3 (11715151_x_at) / Fold change /veh PRB3 (11715151_x_at) / RFU TUBB4B (11761932_at) / Fold change /veh TUBB4B (11761932_at) / RFU CAPN14 (11732068_a_at) / Fold change /veh CAPN14 (11732068_a_at) / RFU TMCC2 (11721928_a_at) / Fold change /veh TMCC2 (11721928_a_at) / RFU IRGQ (11745062_a_at) / Fold change /veh IRGQ (11745062_a_at) / RFU FAM174B (11720279_a_at) / Fold change /veh FAM174B (11720279_a_at) / RFU TMPRSS4 (11748680_a_at) / Fold change /veh TMPRSS4 (11748680_a_at) / RFU FAM212B (11763350_a_at) / Fold change /veh FAM212B (11763350_a_at) / RFU PLEKHG5 (11743358_a_at) / Fold change /veh PLEKHG5 (11743358_a_at) / RFU ZSCAN30 (11745921_a_at) / Fold change /veh ZSCAN30 (11745921_a_at) / RFU CMKLR1 (11741424_a_at) / Fold change /veh CMKLR1 (11741424_a_at) / RFU LOC101060620 /// MAPK8IP1 (11723275_at) / Fold change /veh LOC101060620 /// MAPK8IP1 (11723275_at) / RFU SPTSSB (11747773_x_at) / Fold change /veh SPTSSB (11747773_x_at) / RFU PRSS12 (11739890_at) / Fold change /veh PRSS12 (11739890_at) / RFU BIN1 (11741810_x_at) / Fold change /veh BIN1 (11741810_x_at) / RFU WNT11 (11732464_a_at) / Fold change /veh WNT11 (11732464_a_at) / RFU C10orf10 (11716521_a_at) / Fold change /veh C10orf10 (11716521_a_at) / RFU C5orf56 (11738089_at) / Fold change /veh C5orf56 (11738089_at) / RFU CYB561 (11721691_x_at) / Fold change /veh CYB561 (11721691_x_at) / RFU ANKRD19P (11752326_a_at) / Fold change /veh ANKRD19P (11752326_a_at) / RFU OR2T12 /// OR2T33 /// OR2T8 (11738714_s_at) / Fold change /veh OR2T12 /// OR2T33 /// OR2T8 (11738714_s_at) / RFU VCAN (11748164_a_at) / Fold change /veh VCAN (11748164_a_at) / RFU JSRP1 (11732532_at) / Fold change /veh JSRP1 (11732532_at) / RFU KRTAP10-11 (11738290_x_at) / Fold change /veh KRTAP10-11 (11738290_x_at) / RFU MYO3A (11730013_a_at) / Fold change /veh MYO3A (11730013_a_at) / RFU EBF3 (11725865_a_at) / Fold change /veh EBF3 (11725865_a_at) / RFU CAMK2N1 (11719241_x_at) / Fold change /veh CAMK2N1 (11719241_x_at) / RFU C5orf56 (11738088_a_at) / Fold change /veh C5orf56 (11738088_a_at) / RFU OLFML3 (11715873_a_at) / Fold change /veh OLFML3 (11715873_a_at) / RFU LOC100653217 /// NTM (11731650_a_at) / Fold change /veh LOC100653217 /// NTM (11731650_a_at) / RFU MAPK11 (11762145_a_at) / Fold change /veh MAPK11 (11762145_a_at) / RFU FIZ1 (11724087_x_at) / Fold change /veh FIZ1 (11724087_x_at) / RFU OASL (11726364_x_at) / Fold change /veh OASL (11726364_x_at) / RFU SOX15 (11748057_x_at) / Fold change /veh SOX15 (11748057_x_at) / RFU CD79A (11719716_a_at) / Fold change /veh CD79A (11719716_a_at) / RFU HIST1H1D (11736915_at) / Fold change /veh HIST1H1D (11736915_at) / RFU CASKIN2 (11723855_a_at) / Fold change /veh CASKIN2 (11723855_a_at) / RFU LOC730098 (11760151_x_at) / Fold change /veh LOC730098 (11760151_x_at) / RFU OR4N2 (11742367_at) / Fold change /veh OR4N2 (11742367_at) / RFU PRRT2 (11749266_a_at) / Fold change /veh PRRT2 (11749266_a_at) / RFU SNX32 (11753110_a_at) / Fold change /veh SNX32 (11753110_a_at) / RFU CDHR5 (11726645_a_at) / Fold change /veh CDHR5 (11726645_a_at) / RFU RCAN1 (11760418_a_at) / Fold change /veh RCAN1 (11760418_a_at) / RFU FAM167A (11723789_a_at) / Fold change /veh FAM167A (11723789_a_at) / RFU FAM26E (11764081_at) / Fold change /veh FAM26E (11764081_at) / RFU ISYNA1 (11749810_s_at) / Fold change /veh ISYNA1 (11749810_s_at) / RFU ACY1 (11761880_at) / Fold change /veh ACY1 (11761880_at) / RFU 11764098_at / Fold change /veh 11764098_at / RFU SAMD14 (11745864_x_at) / Fold change /veh SAMD14 (11745864_x_at) / RFU NPB (11741838_a_at) / Fold change /veh NPB (11741838_a_at) / RFU TMPRSS6 (11731388_a_at) / Fold change /veh TMPRSS6 (11731388_a_at) / RFU KRTAP10-2 (11738614_at) / Fold change /veh KRTAP10-2 (11738614_at) / RFU ARHGAP8 /// PRR5-ARHGAP8 (11727945_x_at) / Fold change /veh ARHGAP8 /// PRR5-ARHGAP8 (11727945_x_at) / RFU KRTAP5-7 /// NADSYN1 (11734609_at) / Fold change /veh KRTAP5-7 /// NADSYN1 (11734609_at) / RFU RASL12 (11751679_a_at) / Fold change /veh RASL12 (11751679_a_at) / RFU CDKN2B (11736163_a_at) / Fold change /veh CDKN2B (11736163_a_at) / RFU PRF1 (11729649_at) / Fold change /veh PRF1 (11729649_at) / RFU, ZNF638 /// ZNF638-IT1 / Fold change vs veh, ZNF638 /// ZNF638-IT1 / RFU, PANK3 / Fold change vs veh, PANK3 / RFU, SH3YL1 / Fold change vs veh, SH3YL1 / RFU, ZEB2 / Fold change vs veh, ZEB2 / RFU, NRIP1 / Fold change vs veh, NRIP1 / RFU, PTTG1IP / Fold change vs veh, PTTG1IP / RFU, CAPN2 / Fold change vs veh, CAPN2 / RFU, MED14 / Fold change vs veh, MED14 / RFU, SNORA58 / Fold change vs veh, SNORA58 / RFU, C1orf63 / Fold change vs veh, C1orf63 / RFU, LRRFIP1 / Fold change vs veh, LRRFIP1 / RFU, NDUFAF7 / Fold change vs veh, NDUFAF7 / RFU, SLC12A2 / Fold change vs veh, SLC12A2 / RFU, IBTK / Fold change vs veh, IBTK / RFU, ESF1 / Fold change vs veh, ESF1 / Fold change vs veh, TMEM50B / RFU, TAOK1 / Fold change vs veh, TAOK1 / RFU, ACBD3 / Fold change vs veh, ACBD3 / RFU, TMA16 / Fold change vs veh, TMA16 / RFU, RWDD3 / Fold change vs veh, RWDD3 / RFU, BCAT1 / Fold change vs veh, BCAT1 / RFU, EDEM3 / Fold change vs veh, EDEM3 / RFU, TMEM33 / Fold change vs veh, TMEM33 / RFU, WDR75 / Fold change vs veh, WDR75 / RFU, AHCTF1 / Fold change vs veh, AHCTF1 / RFU, TFRC / Fold change vs veh, TFRC / RFU, ZDHHC17 / Fold change vs veh, ZDHHC17 / RFU, NOM1 / Fold change vs veh, NOM1 / RFU, ARL8B / Fold change vs veh, ARL8B / RFU, ZBTB11 / Fold change vs veh, ZBTB11 / RFU, TAMM41 / Fold change vs veh, TAMM41 / RFU, KIAA1704 /// LOC100996395 / Fold change vs veh, KIAA1704 /// LOC100996395 / RFU, ING1 / Fold change vs veh, ING1 / RFU, TRMT61B / Fold change vs veh, TRMT61B / RFU, FUBP3 / Fold change vs veh, FUBP3 / RFU, TP53 / Fold change vs veh, TP53 / RFU, TNKS2 / Fold change vs veh, TNKS2 / RFU, ZFP14 / Fold change vs veh, ZFP14 / RFU, ACTR2 / Fold change vs veh, ACTR2 / RFU, PPP3R1 / Fold change vs veh, PPP3R1 / RFU, PIK3R1 / Fold change vs veh, PIK3R1 / RFU, HNRNPA1 / Fold change vs veh, HNRNPA1 / RFU, RNF170 / Fold change vs veh, RNF170 / RFU, ZNF28 / Fold change vs veh, ZNF28 / RFU, RNGTT / Fold change vs veh, RNGTT / RFU, OGT / Fold change vs veh, OGT / RFU, BRD1 / Fold change vs veh, BRD1 / RFU, MARS / Fold change vs veh, MARS / RFU, ZNF655 / Fold change vs veh, ZNF655 / RFU, FAHD1 / Fold change vs veh, FAHD1 / RFU, BDP1 / Fold change vs veh, BDP1 / RFU, LRRCC1 / Fold change vs veh, LRRCC1 / RFU, ARID1A / Fold change vs veh, ARID1A / RFU, ZNF146 / Fold change vs veh, ZNF146 / RFU, ZNF330 / Fold change vs veh, ZNF330 / RFU, GPN3 / Fold change vs veh, GPN3 / RFU, C9orf123 / Fold change vs veh, C9orf123 / RFU, N4BP2L2 / Fold change vs veh, N4BP2L2 / RFU, ARFIP1 / Fold change vs veh, ARFIP1 / RFU, FAM179B / Fold change vs veh, FAM179B / RFU, BCL10 / Fold change vs veh, BCL10 / RFU, UHRF1BP1L / Fold change vs veh, UHRF1BP1L / RFU, BET1 / Fold change vs veh, BET1 / RFU, CNOT2 / Fold change vs veh, CNOT2 / RFU, ZNF268 / Fold change vs veh, ZNF268 / Fold change vs veh, ZNF507 / RFU, DGCR2 / Fold change vs veh, DGCR2 / RFU, WDSUB1 / Fold change vs veh, WDSUB1 / Fold change vs veh, HSP90B1 /// MIR3652 / RFU, ADSS / Fold change vs veh, ADSS / RFU, GK / Fold change vs veh, GK / RFU, ZNF148 / Fold change vs veh, ZNF148 / RFU, TAF9 / Fold change vs veh, TAF9 / RFU, SLC1A5 / Fold change vs veh, SLC1A5 / RFU, SLMO2 / Fold change vs veh, SLMO2 / RFU, ABCC4 / Fold change vs veh, ABCC4 / RFU, LOC101060439 /// RAP1B / Fold change vs veh, LOC101060439 /// RAP1B / RFU, RFX7 / Fold change vs veh, RFX7 / RFU, GTPBP10 / Fold change vs veh, GTPBP10 / RFU, CNEP1R1 / Fold change vs veh, CNEP1R1 / RFU, BIVM-ERCC5 /// ERCC5 / Fold change vs veh, BIVM-ERCC5 /// ERCC5 / RFU, ILF3 / Fold change vs veh, ILF3 / RFU 11762660_at / Fold change /veh 11762660_at / RFU VCAN (11757783_s_at) / Fold change /veh VCAN (11757783_s_at) / RFU DDX43 (11728927_at) / Fold change /veh DDX43 (11728927_at) / RFU KRT8 (11758188_x_at) / Fold change /veh KRT8 (11758188_x_at) / RFU NKD1 (11759106_at) / Fold change /veh NKD1 (11759106_at) / RFU SRD5A1 (11742802_a_at) / Fold change /veh SRD5A1 (11742802_a_at) / RFU TPSAB1 /// TPSB2 (11721975_s_at) / Fold change /veh TPSAB1 /// TPSB2 (11721975_s_at) / RFU GSTM3 (11746129_a_at) / Fold change /veh GSTM3 (11746129_a_at) / RFU IL23R (11737362_x_at) / Fold change /veh IL23R (11737362_x_at) / RFU TMEM51 (11727254_a_at) / Fold change /veh TMEM51 (11727254_a_at) / RFU PIWIL2 (11732686_x_at) / Fold change /veh PIWIL2 (11732686_x_at) / RFU ORM1 (11744905_x_at) / Fold change /veh ORM1 (11744905_x_at) / RFU CCDC152 (11743942_at) / Fold change /veh CCDC152 (11743942_at) / RFU ECM1 (11717891_a_at) / Fold change /veh ECM1 (11717891_a_at) / RFU IL23R (11748794_a_at) / Fold change /veh IL23R (11748794_a_at) / RFU TNFAIP8L3 (11732012_x_at) / Fold change /veh TNFAIP8L3 (11732012_x_at) / RFU MBOAT4 (11741988_at) / Fold change /veh MBOAT4 (11741988_at) / RFU 11764193_at / Fold change /veh 11764193_at / RFU TMEM53 (11763286_at) / Fold change /veh TMEM53 (11763286_at) / RFU MAGEB2 (11727129_at) / Fold change /veh MAGEB2 (11727129_at) / RFU TMEM200A (11744735_a_at) / Fold change /veh TMEM200A (11744735_a_at) / RFU CCDC152 (11751479_a_at) / Fold change /veh CCDC152 (11751479_a_at) / RFU FAM211A (11726209_a_at) / Fold change /veh FAM211A (11726209_a_at) / RFU RGS16 (11746705_a_at) / Fold change /veh RGS16 (11746705_a_at) / RFU VCAN (11755009_s_at) / Fold change /veh VCAN (11755009_s_at) / RFU RHOB (11743442_s_at) / Fold change /veh RHOB (11743442_s_at) / RFU RGS16 (11720943_a_at) / Fold change /veh RGS16 (11720943_a_at) / RFU RGS16 (11720944_at) / Fold change /veh RGS16 (11720944_at) / RFU, VPS4B / Fold change vs veh, VPS4B / RFU, CREB1 / Fold change vs veh, CREB1 / RFU, DNAJC13 / Fold change vs veh, DNAJC13 / RFU, GNAQ / Fold change vs veh, GNAQ / RFU, CDK5R1 / Fold change vs veh, CDK5R1 / RFU, ZRANB3 / Fold change vs veh, ZRANB3 / RFU, CUL4A / Fold change vs veh, CUL4A / RFU, CCNY / Fold change vs veh, CCNY / RFU, UFL1 / Fold change vs veh, UFL1 / RFU, COG3 / Fold change vs veh, COG3 / RFU, DIAPH2 / Fold change vs veh, DIAPH2 / RFU, SKA2 / Fold change vs veh, SKA2 / RFU, AFF3 / Fold change vs veh, AFF3 / RFU, LMF1 / Fold change vs veh, LMF1 / RFU, IPO11 / Fold change vs veh, IPO11 / RFU, DFFB / Fold change vs veh, DFFB / RFU, FOXP1 / Fold change vs veh, FOXP1 / RFU, CARD8 / Fold change vs veh, CARD8 / RFU, STRN3 / Fold change vs veh, STRN3 / RFU, ADK / Fold change vs veh, ADK / RFU, RASSF2 / Fold change vs veh, RASSF2 / RFU, WIPF1 / Fold change vs veh, WIPF1 / RFU, LARP1B / Fold change vs veh, LARP1B / RFU, RASA1 / Fold change vs veh, RASA1 / RFU, RB1 / Fold change vs veh, RB1 / RFU, PPFIA1 / Fold change vs veh, PPFIA1 / RFU, MAT2A / Fold change vs veh, MAT2A / RFU, CCT5 / Fold change vs veh, CCT5 / RFU, WDR92 / Fold change vs veh, WDR92 / RFU, CUX1 / Fold change vs veh, CUX1 / RFU, TTC7A / Fold change vs veh, TTC7A / RFU, TMEM135 / Fold change vs veh, TMEM135 / RFU, DEPTOR / Fold change vs veh, DEPTOR / RFU, CPM / Fold change vs veh, CPM / RFU, DNAJB6 / Fold change vs veh, DNAJB6 / RFU, CACNA2D3 / Fold change vs veh, CACNA2D3 / RFU, DTX4 / Fold change vs veh, DTX4 / RFU, TFCP2 / Fold change vs veh, TFCP2 / RFU, GMCL1 /// GMCL1P1 / Fold change vs veh, GMCL1 /// GMCL1P1 / RFU, AEBP2 / Fold change vs veh, AEBP2 / RFU, SNHG1 /// SNORD22 /// SNORD25 /// SNORD26 /// SNORD27 /// SNORD28 /// SNORD29 /// SNORD31 / Fold change vs veh, SNHG1 /// SNORD22 /// SNORD25 /// SNORD26 /// SNORD27 /// SNORD28 /// SNORD29 /// SNORD31 / Fold change (Aza/veh), C12orf56 (ProbeSet 11735607_a_at) / Fold change (ACY-1035/veh), C12orf56 (ProbeSet 11735607_a_at) / Fold change (Aza/veh), FGFR1OP (ProbeSet 11751329_s_at) / Fold change (ACY-1035/veh), FGFR1OP (ProbeSet 11751329_s_at) / Fold change (Aza/veh), VPS36 (ProbeSet 11739960_a_at) / Fold change (ACY-1035/veh), VPS36 (ProbeSet 11739960_a_at) / RFU SYPL1 (11715823_x_at) / Fold change /veh SYPL1 (11715823_x_at) / RFU IGFBP7 (11715501_s_at) / Fold change /veh IGFBP7 (11715501_s_at) / RFU REEP3 (11722064_at) / Fold change /veh REEP3 (11722064_at) / RFU IGLL1 (11728026_x_at) / Fold change /veh IGLL1 (11728026_x_at): dose or concentration left out as unconfirmed
Conditions: MV-4-11 cells, 48 hours

Nc1ccc(-c2cccs2)cc1NC(=O)c1ccc2c(c1)cc(C1CC1)n2CCN1CCOCC1 [ACY-1035]
Fold change /veh NR4A2 (11747474_a_at): 0.99
